± gives the expanded uncertainty stated by the source.
Assays:
[1] = Boiling temperature at pressure P; details: Liquid, DSC
[2] = Crystal; DTA

Oc1ccccc1O [1,2-benzenediol]
[1]
Details	Boiling temperature at pressure P [°C]
2.95 kPa	139.1 ± 1.5
3.93 kPa	145.5 ± 1.8
4.93 kPa	150.7 ± 2

Oc1cccc(O)c1 [1,3-benzenediol]
[1]
Details	Boiling temperature at pressure P [°C]
2.95 kPa	171.6 ± 1.6
3.93 kPa	178.2 ± 1.9
4.93 kPa	183.7 ± 2.1

CCCCCCc1ccc(O)cc1O [1,3-dihydroxy-4-hexylbenzene]
Details	Normal melting temperature [°C]
[2]	67.0 ± 0.4

[1]
Details	Boiling temperature at pressure P [°C]
1.95 kPa	201.0 ± 1.6
2.95 kPa	211.0 ± 2.2
3.87 kPa	218.7 ± 1.9
5.42 kPa	227.1 ± 2
7.89 kPa	238 ± 2.4
9.9 kPa	244.6 ± 2.6
19.83 kPa	267 ± 2.8
29.78 kPa	281.4 ± 2.6
49.68 kPa	301.2 ± 3.3
69.58 kPa	315.0 ± 3.6
79.52 kPa	321.4 ± 3.4
100.93 kPa	332.4 ± 4
198.33 kPa	364.4 ± 5
223.29 kPa	371.5 ± 4.5
250.21 kPa	378 ± 4.6

CCCc1c(O)cccc1O [2-propylresorcinol]
Details	Normal melting temperature [°C]
[2]	104.8 ± 0.4

[1]
Details	Boiling temperature at pressure P [°C]
9.92 kPa	197.5 ± 1.6
19.83 kPa	218.2 ± 2.6
29.79 kPa	231.6 ± 2.4
49.69 kPa	250.2 ± 3.1
69.61 kPa	263.2 ± 3
98.91 kPa	278.0 ± 2.7
198.31 kPa	309.6 ± 4.2
299.37 kPa	332.2 ± 4.1
400.46 kPa	345.8 ± 4.1

CCc1ccc(O)cc1O [4-ethylresorcinol]
Details	Normal melting temperature [°C]
[2]	97.2 ± 0.4

[1]
Details	Boiling temperature at pressure P [°C]
9.92 kPa	207.4 ± 1.6
19.87 kPa	228.2 ± 2.6
29.79 kPa	241.4 ± 2.4
49.73 kPa	259.6 ± 3
69.64 kPa	272.6 ± 3
98.43 kPa	287.0 ± 2.6
198.31 kPa	318.6 ± 4
299.37 kPa	339.8 ± 4.3
400.09 kPa	356.2 ± 5.1

From the NIST ThermoML archive (doi:10.1016/j.jct.2019.03.008)
